The values below come from ChEMBL document CHEMBL4418493, “N-hydroxyformamide compounds and compositions comprising them for use as BMP1, TLL1 and/or TLL2 inhibitors” (2018).

Structures are written as SMILES. Where only a bound is given, the exact number is not on record here.

One series in a line: Reduction in PICP levels in human cardiac fibroblasts incubated for 24 to 48 hrs by ELISA. The format is functional.
Details: not given
Regarding `CCCCC[C@@H](C(=O)NCNC(=O)c1ccc(-c2ccc(C(=O)N[C@@H](CC(=O)O)C(=O)O)c(OCC)c2)o1)[C@@H](CC)N(C=O)OC(=O)C(CC)CC`, the IC50 (in general, the concentration at which inhibition is half-maximal) is less than 3.98 µM.

A further series is described as follows: Drug metabolism in heparinized pooled human plasma at pH 7.5 assessed as formation of (S)-2-(2-ethoxy-4-(5-((((R)-2-((R)-1-(N-hydroxyformamido)propyl)heptanamido)methyl) carbamoyl)furan-2-yl)benzamido)succinic acid at 100 to 2000 ng/ml incubated up to 4 or 24 hrs by LC-MS/MS analysis. The format is ADME, cell-free. The following applies: pH 7.5, 24 h.
As to `CCCCC[C@@H](C(=O)NCNC(=O)c1ccc(-c2ccc(C(=O)N[C@@H](CC(=O)O)C(=O)O)c(OCC)c2)o1)[C@@H](CC)N(C=O)OC(=O)c1cccc(N(C)C)c1`, the Drug metabolism entry is given as “Metabolite_Detected”. Turning to `CCCCC[C@@H](C(=O)NCNC(=O)c1ccc(-c2ccc(C(=O)N[C@@H](CC(=O)O)C(=O)O)c(OCC)c2)o1)[C@@H](CC)N(C=O)OC(=O)C(CC)CC`, the Drug metabolism entry is “Metabolite_Detected”. On the same count and under the same terms, the result for `CCCCC[C@@H](C(=O)NCNC(=O)c1ccc(-c2ccc(C(=O)N[C@@H](CC(=O)O)C(=O)O)c(OCC)c2)o1)[C@@H](CC)N(C=O)OC(=O)c1cccc(NC)c1` reads “Metabolite_Detected”; that for `CCCCC[C@@H](C(=O)NCNC(=O)c1ccc(-c2ccc(C(=O)N[C@@H](CC(=O)O)C(=O)O)c(OCC)c2)o1)[C@@H](CC)N(C=O)OC(=O)c1ccc(OC)cc1C(C)C`, “Metabolite_Detected”. Still for that read-out and setting: the result for `CCCCC[C@@H](C(=O)NCNC(=O)c1ccc(-c2ccc(C(=O)N[C@@H](CC(=O)O)C(=O)OCc3oc(=O)oc3C)c(OCC)c2)o1)[C@@H](CC)N(O)C=O` reads “Metabolite_Detected”; that for `CCCCC[C@@H](C(=O)NCNC(=O)c1ccc(-c2ccc(C(=O)N[C@@H](CC(=O)O)C(=O)O)c(OCC)c2)o1)[C@@H](CC)N(C=O)OC(=O)c1ccc(NC)cc1`, “Metabolite_Detected”.

On to `CCCCC[C@@H](C(=O)NCNC(=O)c1ccc(-c2ccc(C(=O)N[C@@H](CC(=O)O)C(=O)O)c(OCC)c2)o1)[C@@H](CC)N(C=O)OC(=O)c1ccc(N)cc1`, for which the Drug metabolism result is “Metabolite_Detected”. The same measure, in the same setting: the result for `CCCCC[C@@H](C(=O)NCNC(=O)c1ccc(-c2ccc(C(=O)N[C@@H](CC(=O)O)C(=O)O)c(OCC)c2)o1)[C@@H](CC)N(C=O)OC(=O)c1ccc(OC)cc1C.N.N` reads “Metabolite_Detected”; that for `CCCCC[C@@H](C(=O)NCNC(=O)c1ccc(-c2ccc(C(=O)N[C@@H](CC(=O)O)C(=O)O)c(OCC)c2)o1)[C@@H](CC)N(C=O)OC(=O)c1ccc([N+](=O)[O-])cc1C`, “Metabolite_Detected”. The same measure, in the same setting: for `CCCCC[C@@H](C(=O)NCNC(=O)c1ccc(-c2ccc(C(=O)N[C@@H](CC(=O)O)C(=O)O)c(OCC)c2)o1)[C@@H](CC)N(C=O)OC(=O)c1c(C)cccc1OP(=O)(O)O` the value was “Metabolite_Detected”. Same read-out and setting: for `CCCCC[C@@H](C(=O)NCNC(=O)c1ccc(-c2ccc(C(=O)N[C@@H](CC(=O)O)C(=O)O)c(OCC)c2)o1)[C@@H](CC)N(C=O)OC(=O)c1ccc(CN)cc1` the value was “Metabolite_Detected”.

With `CCCCC[C@@H](C(=O)NCNC(=O)c1ccc(-c2ccc(C(=O)N[C@@H](CC(=O)O)C(=O)O)c(OCC)c2)o1)[C@@H](CC)N(C=O)OC(=O)c1ccc(OC)cc1Br`, the Drug metabolism result is given as “Metabolite_Detected”.

Take `CCCCC[C@@H](C(=O)NCNC(=O)c1ccc(-c2ccc(C(=O)N[C@@H](CC(=O)O)C(=O)Oc3ccccc3)c(OCC)c2)o1)[C@@H](CC)N(O)C=O`: the Drug metabolism entry is “Metabolite_Detected”. For the compound `CCCCC[C@@H](C(=O)NCNC(=O)c1ccc(-c2ccc(C(=O)N[C@@H](CC(=O)O)C(=O)O)c(OCC)c2)o1)[C@@H](CC)N(C=O)OC(=O)c1cccc(N)c1`, the Drug metabolism entry is “Metabolite_Detected”.

With `CCCCC[C@@H](C(=O)NCNC(=O)c1ccc(-c2ccc(C(=O)N[C@@H](CC(=O)O)C(=O)O)c(OCC)c2)o1)[C@@H](CC)N(C=O)OC(=O)c1ccc(-n2cccc2)cc1.N.N`, the Drug metabolism result was “Metabolite_Detected”. As for `CCCCC[C@@H](C(=O)NCNC(=O)c1ccc(-c2ccc(C(=O)N[C@@H](CC(=O)O)C(=O)O)c(OCC)c2)o1)[C@@H](CC)N(C=O)OC(=O)Nc1ccccc1`, the Drug metabolism entry is recorded as “Metabolite_Detected”. As to `CCCCC[C@@H](C(=O)NCNC(=O)c1ccc(-c2ccc(C(=O)N[C@@H](CC(=O)O)C(=O)O)c(OCC)c2)o1)[C@@H](CC)N(C=O)OC(=O)c1ccc(OC)cc1Cl`, the Drug metabolism entry was “Metabolite_Detected”.
